Assay results taken from PubChem BioAssay AID720577 (The Scripps Research Institute Molecular Screening Center, 2013).
Activity calls are given as the source filed them. The rule behind the calls is not given here.

target: CCHF virus vOTU protease domain (L polyprotein); test: Crimean Congo hemorrhagic fever virus vOTU protease, Pep AMC substrate, counterscreen, confirmatory (AID 720577); conditions: purified vOTU, fluorescence

Row | Structure (SMILES) | IC50
1 | COC1=C(Br)C(=O)c2nc(C)ccc2C1=O | inactive
2 | O=C(NC(=S)Nc1ccccc1N1CCCC1)c1cccs1 | > 115 µM (inactive)
3 | CC(=O)N(/N=C1\Sc2ccccc2C1=O)c1cccc(C)c1 | inactive
4 | O=C1C(Nc2ccccc2)=C(N2CCCCC2)C(=O)c2ccccc21 | inactive
5 | CCc1ccc(S(=O)(=O)Nc2cc(SCC(=O)O)c(O)c3ccccc23)cc1 | inactive
6 | CC(C)N(C(=O)Nc1ccc2nsnc2c1)C(C)C | > 115 µM (inactive)
7 | CCOC(=O)c1c2c(n(Cc3ccccc3)c1C)C(=O)C(=O)c1ccccc1-2 | 1.49 µM
8 | O=C(O)c1cccc(NC2=C(n3nnc4ccccc43)C(=O)c3ccccc3C2=O)c1 | inactive
9 | Cc1ccc2c(c1C)-c1c(ccc(C)c1C)C(=O)C2=O | inactive
10 | CCOC(=O)c1c(C)[nH]c2c1-c1ccccc1C(=O)C2=O | 0.662 µM
11 | O=c1[nH]c(=S)[nH]c2c1C(c1ccc(Br)cc1)c1c([nH]c(=S)[nH]c1=O)O2 | inactive
12 | CN=c1sc2c(n1C)C(=O)c1ccccc1C2=O | 5.75 µM
13 | CCCCCCCCCCOC(=O)Cn1c(COc2ccc(Cl)cc2)[n+](C)c2ccccc21 | 6.42 µM
14 | CN(C)c1cccc2c1c(NS(=O)(=O)c1cn(C)cn1)nn2C | inactive
15 | C[n+]1c(-c2ccccc2)cc2c(=Cc3ccc([N+](=O)[O-])cc3)c3ccccc3n21 | 4.14 µM
16 | O=S(=O)(N=C1C=CC(=NS(=O)(=O)c2ccccc2)c2ccccc21)c1ccccc1 | inactive
17 | NS(=O)(=O)c1ccc(NC2=CC(=O)C(=O)c3ccccc32)cc1 | inactive
18 | O=[N+]([O-])c1c(Nc2ccccn2)cc(Cl)c2nonc12 | inactive
19 | Nc1scc2c(C(=O)N/N=C/c3ccc(Cl)cc3)nn(-c3ccccc3)c(=O)c12 | inactive
20 | COc1cc2c(cc1OC)-c1c(OC)c(OC)cc3c1C(C2)N(C)CC3 (centres undefined) | > 115 µM (inactive)
21 | Cc1ccc(NC2=C(N3CCOCC3)C(=O)c3ccccc3C2=O)cc1 | inactive
22 | CC[n+]1c(-c2ccccc2)c2cc(N)ccc2c2ccc(N)cc21 | 3.32 µM

Row | Structure (SMILES) | IC50
23 | O=S(=O)(Nc1c(S(=O)(=O)c2ccccc2)c2nc3ccccc3nc2n1C1CCCCC1)c1ccccc1 | > 115 µM (inactive)
24 | COc1cc(CCNC2=CC(=O)c3ncccc3C2=O)ccc1O | inactive
25 | CC1(OC(=O)C2CCCC2)C(=O)C=C2C=C(c3ccsc3)N(CCCCO)C=C2C1=O (centres undefined) | inactive
26 | O=C(O)c1ccc(NC2=C(n3nnc4ccccc43)C(=O)c3ccccc3C2=O)cc1 | inactive
27 | O=C(O)c1cccc(NC2=C(N3CCOCC3)C(=O)c3ccccc3C2=O)c1 | inactive
28 | Cc1ccc(NC2=C(N3CCCCC3)C(=O)c3ccccc3C2=O)cc1 | inactive
29 | CC(=O)NC1=C(N(C)C2CCS(=O)(=O)C2)C(=O)c2ccccc2C1=O (centres undefined) | inactive
30 | Clc1ccc(C2=CSC3=Nc4cccc5cccc(c45)N23)cc1 | inactive
31 | O=C(c1ccco1)[C@@H]1[C@@H]2C(=O)N(c3ccc(Br)cc3)C(=O)[C@@H]2C2c3ccccc3C=CN21 (some centres undefined) | inactive
32 | O=C(O)CSc1cc(NS(=O)(=O)c2cccc([N+](=O)[O-])c2)c2ccccc2c1O | 7.61 µM
33 | Cn1nc(-c2ccccn2)nc2c(=O)n(C)c(=O)nc1-2 | 1.16 µM
34 | O=C(/C=C/c1ccc(O)cc1)c1ccc(NC2=C(N3CCCCC3)C(=O)c3ccccc3C2=O)cc1 | inactive
35 | O=C1C=C(O)c2[nH]c(=O)ccc2C1=O | inactive
36 | O=S(=O)(Nc1cc(Sc2ncn[nH]2)c(O)c2ccccc12)c1ccccc1 | 2.16 µM
37 | O=C(N/N=C1\C/C(=N\NC(=O)c2ccncc2)c2ccccc21)c1ccncc1 | 1.81 µM
38 | O=C(NC(=S)Nc1ccccc1N1CCCC1)c1ccccc1Br | > 115 µM (inactive)
39 | CCOC(=O)N1CCN(C2=C(NS(=O)(=O)c3ccc(C)cc3)C(=O)c3ccccc3C2=O)CC1 | inactive
40 | CC(=O)N(/N=C1\Sc2ccccc2C1=O)c1ccccc1C | inactive
41 | CC1COCC(C)N1C1=C(Cl)C(=O)c2ccccc2C1=O (centres undefined) | inactive
42 | CNc1ccc2nc3ccccc3[n+](C)c2c1 | inactive
43 | COc1ccc(/C=N/NC(=O)c2nn(-c3ccccc3)c(=O)c3c(N)scc23)cc1 | inactive
44 | COc1ccccc1N=Nc1c(O)[nH]c(=S)[nH]c1=O | inactive

Row | Structure (SMILES) | IC50
45 | Cc1coc2c(O)cc3c(c12)OC1(N2CCCCC2)C(=O)NCCCC31 (centres undefined) | inactive
46 | C=CCN1C(=O)/C(=C/c2ccc(OC(C)=O)c(OCC)c2[N+](=O)[O-])SC1=S | inactive
47 | O=C1Cc2ccccc2C(=O)N1 | 0.597 µM
48 | O=C(NC(=S)Nc1ccccc1N1CCCC1)c1ccc(F)cc1 | > 115 µM (inactive)
49 | CC(C)NC1=C(Cl)C(=O)c2ccccc2C1=O | inactive
50 | CC(=O)N(C1=C(N)C(=O)c2ccccc2C1=O)c1ccccc1 | inactive
51 | CC(=O)N(C1=C(Cl)C(=O)c2ccccc2C1=O)c1ccc(C(=O)O)cc1 | 4.77 µM
52 | O=C(c1ccccc1)c1coc2c1C(=O)c1ccccc1C2=O | inactive
53 | S=C(Nc1ccc2nsnc2c1)N1CCCCCC1 | inactive
54 | O=C1C(=O)c2ccccc2-c2ccccc21 | 3.75 µM
55 | CCOC(=O)C1=C(COC(=O)c2ccc([N+](=O)[O-])s2)NC(=O)NC1C (centres undefined) | inactive
56 | COC1=CC(=O)c2c(ccc3ncnc(N)c23)C1=O | 0.853 µM
57 | O=C1NC(c2ccc(-c3ccccc3[N+](=O)[O-])o2)C(C(=O)c2ccc(Cl)cc2)C(O)(C(F)(F)F)N1 (centres undefined) | inactive
58 | O=C1C=C(N2CCCCC2)c2ccccc2C1=O | inactive
59 | Cc1ccc(CNc2ccc(O)cc2)cc1 | inactive
60 | O=C1C=C(N2CC2)c2ccccc2C1=O | 8.1 µM
61 | CC(=O)Nc1ccc(S(=O)(=O)NC2=C(N3CCN(c4ccc(F)cc4)CC3)C(=O)c3ccccc3C2=O)cc1 | inactive
62 | COc1cc2c(cc1O)[C@@H]1Cc3ccc(OC)c(O)c3CN1CC2 | inactive
63 | COc1cc(C(=O)c2nccc3cc(OC)c(OC)cc23)c([N+](=O)[O-])cc1OC | 4.04 µM
64 | COc1ccc(-n2c3nc4ccccc4nc3c3c(=N)oc(C)nc32)cc1 | > 115 µM (inactive)
65 | CCOC(=O)c1cc2c(ccn2C)n1Cc1ccccc1C | inactive
66 | NC(=S)N=Nc1c(O)cc(O)c2[nH]c(=O)ccc12 | inactive

Row | Structure (SMILES) | IC50
67 | COCCN1C=C2C(=O)C(C)(OC(=O)C3CCCC3)C(=O)C(c3ccccc3)=C2C=C1CCCC(=O)OC (centres undefined) | inactive
68 | CCOC(=O)/C=C(\C)Sc1cc(O)c2ccccc2c1O | 4.61 µM
69 | Nc1cc2c(cc1Br)[nH]c(=O)c1ccccc12 | 4.57 µM
70 | O=C(O)CSc1cc(NS(=O)(=O)c2ccc(Cl)cc2)c2ccccc2c1O | inactive
71 | COc1ccc(Cc2nccc3cc(OC)c(OC)cc23)cc1OC | inactive
72 | NC1=CC(=O)C(=O)c2cccnc21 | 4.94 µM
73 | CN(C)CCCNc1cc(O)c2ncccc2c1 | inactive
74 | Oc1ccccc1CNc1cccc2cccnc12 | inactive
75 | Cc1ccccc1NC1=C/C(=N\S(=O)(=O)c2cccs2)c2ccccc2C1=O | 1.04 µM
76 | O=c1[nH]c(Nc2ccccc2)cc2cc(Br)ccc12 | 1.45 µM
77 | O=C1C(=NO)CCc2ccccc21 | inactive
78 | CN1CCC/C1=C/C=C1\SC(=S)NC1=O | inactive
79 | Cc1cc(=O)c2c(o1)C(=O)c1occc1C2=O | inactive
80 | CN(C)c1ccc(C=c2c3cc(O)ccc3n3c2cc(-c2ccccc2)[n+]3C)cc1 | 4.33 µM
81 | CC1OC(CC(=O)O)CC2=C1C(=O)c1c(O)cccc1C2=O (centres undefined) | inactive
82 | Oc1c(C=Nc2cccc3nsnc23)ccc2ccccc12 | inactive
83 | O=C1NNC(c2ccccc2)=N/C1=C\c1ccccc1Cl | inactive
84 | CCC(COC)Oc1cc(NCc2ccccc2)c2ncn(C(C)C)c2c1 (centres undefined) | inactive
85 | CN(C)S(=O)(=O)c1cccc(NC(=S)Nc2cccc3cnccc23)c1 | inactive
86 | COc1cc(NCCCC(C)N)c2ncccc2c1 (centres undefined) | 4.6 µM
87 | COc1ccc(C(C[N+](=O)[O-])c2c(C)[nH]n(-c3ccccc3)c2=O)cc1 (centres undefined) | > 115 µM (inactive)
88 | Cc1nc2c(o1)C(=O)c1ccccc1C2=Nc1ccccc1 | inactive

Row | Structure (SMILES) | IC50
89 | Cc1ccc(NC2=CC(=O)C(=O)c3ccccc32)cc1 | inactive
90 | Cc1cnc(C=NNC(N)=S)c2cccc(N)c12 | inactive
91 | Cc1ccc(Cl)cc1NC1=C/C(=N\S(=O)(=O)c2cccs2)c2ccccc2C1=O | 2.37 µM
92 | O=C1C=C(NCc2ccccc2)c2ccccc2C1=O | inactive
93 | O=C1C=C(N2CCOCC2)c2ccccc2C1=O | inactive
94 | O=C(COC(=O)c1ccc([N+](=O)[O-])s1)NCc1ccc(F)cc1 | inactive
95 | Cc1cnc(C2OCCO2)c2cccc(N)c12 | 5.37 µM
96 | O=C(COC(=O)c1ccc([N+](=O)[O-])s1)Nc1ccc(Cl)cn1 | > 115 µM (inactive)
97 | O=C(NC1=C(NC2CCS(=O)(=O)C2)C(=O)c2ccccc2C1=O)c1ccccc1 (centres undefined) | inactive
98 | Cc1ccc(N2C(=O)[C@@H]3[C@H](C2=O)C2c4ccccc4C=CN2[C@@H]3C(=O)c2ccco2)cc1 (some centres undefined) | 5.2 µM
99 | CC(=O)N(C)c1ccc(N=Cc2cc3c(cc2[N+](=O)[O-])OCO3)cc1 | inactive
100 | C[n+]1c(-c2ccccc2)c2cc(N)ccc2c2ccc(N)cc21 | inactive
101 | O=C1C(Cl)=C(NCCCO)C(=O)c2ccccc21 | inactive
102 | C[n+]1c2ccccc2nc2ccc(NCCO)cc21 | inactive
103 | NC1=C(Br)C(=O)c2ccccc2C1=O | 6.65 µM
104 | Cc1c(Cl)cnc(NC(=O)COC(=O)c2ccc([N+](=O)[O-])s2)c1Cl | inactive
105 | CC(NC1=CC(=O)c2cccnc2C1=O)C(O)c1ccccc1 (centres undefined) | 4.33 µM
106 | CC1OC2CC(=O)OC2C2=C1C(=O)c1c(O)cccc1C2=O (centres undefined) | inactive
107 | CC(=O)[C@H]1[C@@H]2C(=O)N(c3cccc(Cl)c3)C(=O)[C@@H]2[C@H]2c3ccccc3C=CN21 | inactive
108 | CN(C)c1ccc2nc3ccc(=O)cc-3sc2c1 | > 115 µM (inactive)
109 | CCN(CC)CCCC(C)n1c2nc(=O)[nH]c(=O)c-2nc2cc(Cl)ccc21 (centres undefined) | 5.44 µM
